The values that follow come from US11890288B2, “Sulfonamide or sulfinamide compound having effect of inducing BRD4 protein degradation and pharmaceutical use thereof” (MITSUBISHI TANABE PHARMA CORPORATION, priority 2020, dated 2024).

Test [1] relates to human acute myeloid leukemia MV-4-11 cell transplanted mouse. In words: Antitumor effect of 1 week intermittent administration to MV-4-11 cell transplanted mouse (tail vein, days 1 and 8). It is filed as in vivo. As to conditions: tumor weight on day 15. As for the experimental part:
The in vivo antitumor effect of the compound of the present invention was studied using human acute myeloid leukemia MV-4-11 cell transplanted mouse. MV-4-11 cells were subcutaneously transplanted into the inguinal region of male, 6-week-old BALB/c nude mouse (5×10^6 cells/mouse). The compound of the present invention was administered into the tail vein on days 1 and 8 from the time point when the assumed tumor volume determined from ½ab^2 (a is major axis and b is minor axis of tumor) reached about 200 mm^3 (day 1). The control group was administered with a solvent, 10% Kolliphor ELP/5% ethanol/85% saline solution. On day 15, the tumor was isolated, the weight was measured, and the tumor growth inhibitory rate IR (%) was calculated by the following formula. tumor growth inhibitory rate IR (%)={1−(average tumor weight of administration group/average tumor weight of nonadministration control group)}×100(%)

Test [2] concerns human bladder cancer 5637 cell. The experiment in a line: Cytotoxic action on 5637 cells (WST-8, 96 hr). It counts as cell-based. The conditions noted are these: 5637, 96 hr. The protocol: (§1) The cytotoxic action of the compound of the present invention against human cancer cells was evaluated in vitro. In this experiment, (+)-JQ1 (Nature volume 468, pages 1067-1073 (23 Dec. 2010)) known to have an inhibitory activity on the binding of BRD4 protein and a ligand therefor was used as a positive control drug. Respective cells were suspended in 10% FBS/RPMI1640, seeded in a 96 well plate and cultured at 5% CO2, 37° C. overnight. A test compound dissolved in DMSO was diluted with 10% FBS/RPMI1640 and added and the cells were further cultured for 96 hr. After culturing, the viable cell number was measured using a cell number measurement WST-8 kit (Kishida Chemical Co., Ltd.). As a control, the measurement was performed under conditions free of the test compound. The cytotoxic activity of the compound of the present invention against human prostate cancer LNCaP cells is shown in IC50 value in Table 1. The IC50 value is a concentration of the compound showing 50% cell survival rate when the cell survival rate thereof under compound untreated condition is 100%. It was calculated from the straight line connecting the cell survival rate at two points enclosing the 50% cell survival rate and the compound concentration. […]

Test [3] relates to human prostate cancer LNCaP cells. In words: Cytotoxic action on LNCaP cells (WST-8, 96 hr). The conditions noted are these: 96 hr culture. It is filed as cell-based. The essentials: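 Growth-inhibition format: 96 hr continuous exposure, 37° C, 5% CO2, 10% FBS/RPMI1640, WST-8 read-out. Values are IC50 against the untreated-control survival, taken from the line joining the two points around 50%.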

Test [4] concerns human colon cancer HCT116 cell. In words: Cytotoxic action on HCT116 cells (WST-8, 96 hr). The conditions noted are these: HCT-116, HCT116, 96 hr. It counts as cell-based. The protocol: as §1
For test [5], the system named is human renal cell cancer 786-O cell. The experiment in a line: Cytotoxic action on 786-O cells (WST-8, 96 hr). It counts as cell-based. The conditions noted are these: 786-O (printed 786-0). As for the experimental part:
as §1

Test [6] relates to human uterine sarcoma MES-SA cell. In words: Cytotoxic action on MES-SA cells (WST-8, 96 hr). It counts as cell-based. As for the experimental part: as §1
The test system of test [7] is human large cell lung cancer NCI-H460 cell. The experiment in a line: Cytotoxic action on NCI-H460 cells (WST-8, 96 hr). It is filed as cell-based. As to conditions: NCI-H460, 96 hr. As for the experimental part:
as §1

Test [8] concerns human pancreatic cancer BxPC-3 cell. In words: Cytotoxic action on BxPC-3 cells (WST-8, 96 hr). It counts as cell-based. As to conditions: BxPC-3, 96 hr. The protocol: as §1
Another test deals with MDA-MB-436 w/o2 cells. In words: Cytotoxic action on MDA-MB-436 w/o2 cells that acquired resistance to conventional BRD4 degraders (WST-8, 96 hr). It counts as cell-based, human. The protocol:
(§2) The cytotoxic action of the compound of the present invention against cancer cells that acquired resistance to conventional BRD4 protein degradation inducing agents was evaluated in vitro. In this experiment, ARV-771 (Proc Natl Acad Sci USA. volume 113, pages 7124-7129 (28 Jun. 2016)) and MZ1 (ACS Chem Biol. Volume 10, pages 1770-1777 (21 Aug. 2015)), in which a ligand for VHL and BRD4 protein inhibitor are linked, were used as a conventional BRD4 protein degradation inducing agent serving as a comparison control. Human breast cancer MDA-MB-436 cells and MDA-MB-436 cells that acquired resistance to conventional BRD4 protein degradation inducing agents (MDA-MB-436 w/o2 cells) were suspended in 10% FBS/RPMI1640, seeded in a 96 well plate and cultured at 5% CO2, 37° C. overnight. A test compound dissolved in DMSO was diluted with 10% FBS/RPMI1640 and added and the cells were further cultured for 96 hr. After culturing, the viable cell number was measured using a cell number measurement WST-8 kit (Kishida Chemical Co., Ltd.). As a control, the measurement was performed under conditions free of the test compound. The cytotoxic activity of the compound of the present invention against each cell is shown in IC50 value in Table 4. The IC50 value is a concentration of the compound showing 50% cell survival rate when the cell survival rate thereof under compound untreated condition is 100%. It was calculated from the straight line connecting the cell survival rate at two points enclosing the 50% cell survival rate and the compound concentration. In addition, the tolerance (fold) was calculated by dividing the IC50 value in MDA-MB-436 w/o2 cells by the IC50 value in MDA-MB-436 cells.

Test [9] concerns human chronic myeloid leukemia K562 cell. The experiment in a line: Cytotoxic action on K562 cells (WST-8, 96 hr). It is filed as cell-based. As to conditions: K562, 96 hr. The protocol:
as §1

Test [10] has as its system Human breast cancer MDA-MB-436 cells. The experiment in a line: Cytotoxic action on MDA-MB-436 cells (WST-8, 96 hr). It counts as cell-based. As to conditions: Homo sapiens. The protocol:
as §2

The subject of test [11] is human EGFRT790M mutation-positive non-small cell lung cancer NCI-H1975 cell. The experiment in a line: Cytotoxic action on NCI-H1975 cells (WST-8, 96 hr). As to conditions: NCI-H1975, 96 hr. It counts as cell-based. The protocol:
as §1

Test [12] concerns human T-cell leukemia Jurkat cells. In words: Cytotoxic action on Jurkat cells (WST-8, 96 hr). It counts as cell-based. The protocol:
as §1

Marks after values point to notes of the source that are not given here.

Turning to `COC(=O)C[C@@H]1N=C(c2ccc(-c3ccc(C(=O)NCc4ccc(S(=O)(=O)Nc5ccc(C)c6c(C#N)c[nH]c56)cc4)cc3)cc2)c2c(sc(C)c2C)-n2c(C)nnc21` [Example 1, methyl [(6S)-4-{4′-[({4-[(3-cyano-4-methyl-1H-indol-7-yl)sulfamoyl]phenyl}methyl)carbamoyl][1,1′-biphenyl]-4-yl}-2,3,9-trimethyl-6H-thieno[3,2-f][1,2,4]triazolo[4,3-a][1,4]diazepin-6-yl]acetate], the “tumor growth inhibitory rate” value in test [1] (4 mg/kg/day) is 56** %; in test [1] (12.5 mg/kg/day) it was 92** %. The IC50 in [2] stood at 1.9 nM; in [3] it was 0.14 nM; in test [4], 8.8 nM; in test [5], 660 nM; in [6] it was 1.8 nM; in [7], 28 nM. For the same compound, the IC50 is 3.3 nM in test [8]; 0.51 nM in the test on MDA-MB-436 w/o2 cells (Homo sapiens, MDA-MB-436 w/o2 cells, 96 hr); 1.7 nM in test [9]; 0.39 nM in [10]; 3.6 nM in test [11]; 1.3 nM in test [12]. The compound further yielded a resistance in the test on MDA-MB-436 w/o2 cells (IC50 in MDA-MB-436 w/o2 cells divided by IC50 in MDA-MB-436 cells) of 1.3 fold.
